Experimental data taken from the NIST ThermoML archive (doi:10.1021/je060271a).

Details: 343.14 K, Liquid, Vibrating tube method

CCCCCCC(=O)OCC(COC(=O)CCCCCC)(COC(=O)CCCCCC)COC(=O)CCCCCC [pentaerythritol tetraheptanoate]
Details | mass density [kg/m3]
18157 kPa | 953.7
18178 kPa | 953.7
18297 kPa | 953.7
18319 kPa | 953.8
18346 kPa | 953.8
18368 kPa | 953.7
18394 kPa | 953.9
18417 kPa | 953.8
18440 kPa | 953.8
18467 kPa | 954
18490 kPa | 953.8
18513 kPa | 953.9
18736 kPa | 954
18759 kPa | 954.1
18788 kPa | 954.2
18811 kPa | 954.1
18834 kPa | 954.2
18863 kPa | 954.2
18886 kPa | 954.2
18911 kPa | 954.2
18939 kPa | 954.2
18963 kPa | 954.3
18988 kPa | 954.2
19016 kPa | 954.2
19305 kPa | 954.6
19330 kPa | 954.5
19356 kPa | 954.5
19386 kPa | 954.6
19411 kPa | 954.6
19743 kPa | 954.6
19769 kPa | 954.7
19796 kPa | 954.8
19828 kPa | 954.7
19854 kPa | 954.8
19881 kPa | 954.8
19913 kPa | 954.8
19941 kPa | 954.8
19968 kPa | 954.8
19994 kPa | 954.9
20028 kPa | 954.9
20054 kPa | 955
20087 kPa | 954.9
20115 kPa | 955
20142 kPa | 955
20169 kPa | 955.2
20203 kPa | 955.1
20230 kPa | 955.1
20258 kPa | 955.1
20441 kPa | 955.3
20475 kPa | 955.2
20533 kPa | 955.4
20567 kPa | 955.3
20596 kPa | 955.3
20625 kPa | 955.3
20660 kPa | 955.3
20722 kPa | 955.3
20752 kPa | 955.5
20817 kPa | 955.5
20847 kPa | 955.4
20877 kPa | 955.4
20907 kPa | 955.5
20942 kPa | 955.6
20972 kPa | 955.5
21003 kPa | 955.6
21039 kPa | 955.6
21133 kPa | 955.6
21170 kPa | 955.7
21200 kPa | 955.8
21230 kPa | 955.8
21267 kPa | 955.7
21298 kPa | 955.9
21330 kPa | 955.8
21368 kPa | 955.8
21399 kPa | 955.8
21431 kPa | 955.9
21462 kPa | 955.8
21500 kPa | 956
21533 kPa | 955.8
21565 kPa | 956
21597 kPa | 956
21636 kPa | 955.9
21669 kPa | 956
21702 kPa | 956
21740 kPa | 956
21773 kPa | 956
21806 kPa | 956.1
21839 kPa | 956.1
21878 kPa | 956.2
21912 kPa | 956.2
21946 kPa | 956.2
21986 kPa | 956.1
22020 kPa | 956.3
22053 kPa | 956.2
22086 kPa | 956.1
22236 kPa | 956.4
22270 kPa | 956.5
22311 kPa | 956.5
22345 kPa | 956.4
22380 kPa | 956.5
22421 kPa | 956.5
22456 kPa | 956.5
22491 kPa | 956.6
22526 kPa | 956.5
22569 kPa | 956.6
22604 kPa | 956.6
22640 kPa | 956.7
22675 kPa | 956.7
22776 kPa | 956.7
22834 kPa | 956.7
22870 kPa | 956.8
22914 kPa | 956.8
22950 kPa | 956.8
